Here are results for 25 compounds from US20060035869A1, “Inhibitors of epoxide hydrolases for the treatment of hypertension” (THE REGENTS OF THE UNIVERSITY OF CALIFORNIA OFFICE OF …, priority 1999, published 2006).

Structures are written as SMILES. Read-outs that look alike come from different tables or passages of the source.

One test concerns the target T1, Rat mEH (Rattus norvegicus, UniProt P07687).
T1 sequence (P07687 1-455): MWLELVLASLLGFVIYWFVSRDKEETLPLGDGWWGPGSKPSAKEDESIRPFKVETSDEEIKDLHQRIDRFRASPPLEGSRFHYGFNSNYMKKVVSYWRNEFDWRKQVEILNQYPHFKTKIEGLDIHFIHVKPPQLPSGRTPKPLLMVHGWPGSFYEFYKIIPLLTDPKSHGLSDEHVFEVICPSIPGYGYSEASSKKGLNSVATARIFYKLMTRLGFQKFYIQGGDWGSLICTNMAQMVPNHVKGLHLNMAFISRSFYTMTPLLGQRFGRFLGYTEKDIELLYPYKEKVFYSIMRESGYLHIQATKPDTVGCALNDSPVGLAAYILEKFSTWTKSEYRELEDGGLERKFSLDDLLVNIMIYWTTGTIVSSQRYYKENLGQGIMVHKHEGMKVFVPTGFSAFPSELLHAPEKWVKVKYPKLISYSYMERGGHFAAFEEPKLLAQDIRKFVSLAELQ
Kind of test: Inhibition of mammalian microsomal EH, 3H-cis-stilbene oxide assay. The class given is biochemical. The procedure:
(§1) The mixture was incubated at 30° C. for 5 minutes. […] Assays were performed in quadruplicate.

The next test concerns the target T2, human sEH (Homo sapiens, UniProt P34913).
T2 construct: made in house; host or cells: baculovirus expression system (insect cells)
T2 sequence (P34913 1-555): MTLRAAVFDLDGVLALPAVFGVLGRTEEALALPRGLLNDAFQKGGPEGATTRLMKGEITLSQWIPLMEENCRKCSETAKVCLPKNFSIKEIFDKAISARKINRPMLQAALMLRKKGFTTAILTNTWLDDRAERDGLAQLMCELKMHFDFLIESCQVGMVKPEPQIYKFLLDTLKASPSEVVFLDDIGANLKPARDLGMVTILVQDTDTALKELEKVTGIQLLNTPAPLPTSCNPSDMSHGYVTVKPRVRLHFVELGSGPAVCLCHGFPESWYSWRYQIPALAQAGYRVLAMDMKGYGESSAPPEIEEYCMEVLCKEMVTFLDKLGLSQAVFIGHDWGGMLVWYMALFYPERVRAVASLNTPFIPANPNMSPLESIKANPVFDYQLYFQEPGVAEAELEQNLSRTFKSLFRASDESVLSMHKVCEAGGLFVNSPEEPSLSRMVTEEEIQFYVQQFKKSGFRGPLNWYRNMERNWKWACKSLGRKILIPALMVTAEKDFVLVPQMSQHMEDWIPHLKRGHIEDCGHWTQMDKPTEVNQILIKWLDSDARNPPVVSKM
The experiment in a line: Inhibition of recombinant human soluble EH, spectrophotometric NEP2C assay. The class given is biochemical. The note with it: recombinant enzyme, NEP2C 40 μM, 30° C., pH 7.4. The method, then:
(§2) Recombinant mouse sEH (MsEH) and human sEH (HsEH) were produced in a baculovirus expression system as previously reported. […] The expressed proteins were purified from cell lysate by affinity chromatography. […] Protein concentration was quantified using the Pierce BCA assay using bovine serum albumin as the calibrating standard.
as §1

In a further test the target is T3, mouse sEH (Mus musculus, UniProt P34914).
T3 construct: made in house; host or cells: baculovirus expression system (insect cells)
T3 sequence (P34914 1-554): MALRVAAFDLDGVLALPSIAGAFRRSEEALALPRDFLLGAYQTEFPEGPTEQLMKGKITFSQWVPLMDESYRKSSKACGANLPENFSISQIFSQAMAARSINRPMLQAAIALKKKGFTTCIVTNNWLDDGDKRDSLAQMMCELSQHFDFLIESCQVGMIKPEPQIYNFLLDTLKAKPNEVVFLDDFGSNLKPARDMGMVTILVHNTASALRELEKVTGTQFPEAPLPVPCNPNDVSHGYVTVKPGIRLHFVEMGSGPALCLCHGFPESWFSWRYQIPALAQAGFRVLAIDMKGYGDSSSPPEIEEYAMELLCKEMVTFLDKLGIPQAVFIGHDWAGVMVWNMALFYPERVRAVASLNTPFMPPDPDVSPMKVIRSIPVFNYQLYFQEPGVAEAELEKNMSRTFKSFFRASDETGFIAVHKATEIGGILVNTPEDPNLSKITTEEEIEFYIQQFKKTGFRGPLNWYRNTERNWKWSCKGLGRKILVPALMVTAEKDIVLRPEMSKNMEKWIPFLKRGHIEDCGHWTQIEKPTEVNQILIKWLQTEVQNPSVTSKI
The experiment in a line: Inhibition of recombinant mouse soluble EH, spectrophotometric NEP2C assay. The class given is biochemical. The procedure:
as §2, §1

Test [1] deals with leukotoxin/isoleukotoxin induced death. The experiment in a line: Protection of mice against leukotoxin/isoleukotoxin induced death. It counts as in vivo, mouse. As to conditions: Swiss Webster mice, 400 mg/kg i.p. in corn oil 30 minutes before leukotoxin/isoleukotoxin methyl esters 700 mg/kg i.v. The method, then:
Male Swiss Webster mice (25-28 g) were purchased from Simonsen, Gilroy, Calif. The animals had free access to water and food. […] After 30 minutes of the pretreatment, the mice were treated intravenously through the tail vein with a 1:1 mixture of leukotoxin/isoleukotoxin methyl esters in ethanol (700 mg/kg, 1.0 ml/kg).
The mice died of respiratory distress after exposure to leukotoxin/isoleukotoxin. The lethal reactions took place sequentially with accelerated breathing, opening of the mouth to assist breathing, and bloody fluid running from the nose.

Another test addresses T4, M secta mEH (Manduca sexta, UniProt Q25489).
T4 sequence (Q25489 1-462): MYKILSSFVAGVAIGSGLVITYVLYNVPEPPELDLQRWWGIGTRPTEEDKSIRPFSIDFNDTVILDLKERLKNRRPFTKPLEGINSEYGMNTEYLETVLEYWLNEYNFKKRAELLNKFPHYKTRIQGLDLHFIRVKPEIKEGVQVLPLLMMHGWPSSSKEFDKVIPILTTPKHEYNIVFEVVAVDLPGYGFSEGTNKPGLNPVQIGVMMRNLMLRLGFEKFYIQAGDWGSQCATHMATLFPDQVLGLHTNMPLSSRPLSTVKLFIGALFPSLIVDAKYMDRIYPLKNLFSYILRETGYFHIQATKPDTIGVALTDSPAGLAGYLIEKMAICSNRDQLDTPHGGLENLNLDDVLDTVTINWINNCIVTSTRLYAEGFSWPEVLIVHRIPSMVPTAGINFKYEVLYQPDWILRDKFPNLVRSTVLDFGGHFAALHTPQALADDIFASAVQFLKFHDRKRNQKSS
Kind of test: Inhibition of recombinant insect microsomal EH. The class given is biochemical.

Where [2] appears, read: recombinant enzyme, NEP2C 40 μM, 30° C., pH 7.4, read-out: Mouse sEH IC50.

`CCOC(CCCNC(=O)Nc1cccc(Cl)c1)OCC` [Compound 167]: the IC50 at Rat mEH was over 500 µM.

For the compound `S=C(NC1CCCCC1)NC1CCCCC1` [Compound 12], the IC50 was 20 ± 1 µM on human sEH and 99 ± 5 µM at mouse sEH (setting [2]).

For the compound `CCCCCCCCCCCCNC(=O)NCCF` [Compound 238], the IC50 at Rat mEH was determined as 9.9 ± 0.2 µM; on human sEH it was 57 ± 1 µM; on mouse sEH (setting [2]) it was 50 ± 5 µM.

For the compound `O=C(Nc1ccc(Oc2ccccc2)cc1)NC1CCCCC1` [Compound 140], the IC50 against Rat mEH was over 500 µM.

The compound `O=C(NC1CCCCC1)NC1CCCCC1` [Compound 2, N,N′-dicyclohexylurea] displayed an IC50 on Rat mEH of over 500 µM. The “animal death induced by leukotoxin/isoleukotoxin” value in test [1] is “either blocked the animal death induced by leukotoxin/isoleukotoxin or lengthened the lives of the mice”.

Regarding `CCCCCCCCNC(N)=O` [Compound 101], the IC50 on Rat mEH is 73 ± 1 µM; at human sEH, 5.5 ± 0.1 µM; on mouse sEH (setting [2]) it was 1.04 ± 0.02 µM.

On to `[O-][S+](Cc1ccccc1)Cc1ccccc1` [Compound 161], for which the IC50 against Rat mEH was over 500 µM; at human sEH, 289 ± 7 µM; at mouse sEH, 156 ± 3 µM.

`C(=NC1CCCCC1)=NC1CCCCC1` [Compound 1, dicyclohexylcarbodiimide]: the “effect of time on the inhibition of mouse sEH” value at mouse sEH (FIG. 1) is “increased with the time”.

Take `CC(C)c1ccc(NC(=O)NCC2CCCCC2)cc1` [Compound 180]: the IC50 on Rat mEH was over 500 µM.

On to `O=C(NC1CCCCCCC1)NC1CCCCC1` [Compound 58], for which the IC50 at M secta mEH is 3.9 ± 0.4 µM; at Rat mEH, over 500 µM.

On Rat mEH, `CCCCCCCCCCNC(=O)Nc1cccc(Cl)c1` [Compound 172] displayed an IC50 of over 500 µM.

`CCCCCCCCCCN` [Compound 303]: the figures for the IC50 at Rat mEH, on human sEH and on mouse sEH (setting [2]) were 2.67 ± 0.07 µM, over 500 µM and over 500 µM, respectively.

Take `CCCCCCCCCCNC(=O)NCC` [Compound 28]: the figures for the IC50 on Rat mEH, at human sEH and at mouse sEH (setting [2]) were 8.3 ± 0.4 µM, 48 ± 3 µM and 5.8 ± 0.4 µM, respectively.

Compound `O=C(NCC1CCCCC1)Nc1cccc(Cl)c1` [Compound 179] returned an IC50 on Rat mEH of over 500 µM.

As for `CCCCCCCCCCNC(=O)NC` [Compound 17], on M secta mEH, the half-inhibitory concentration (IC50) was 28 ± 2 µM.

With `O=C(NCC1CCCCC1)NC1CCCCC1` [Compound 57], the IC50 at Rat mEH is over 500 µM.

As for `CC1CCC(C(C)C)C(OC(=O)NC2CCCCC2)C1` (stereo not shown) [Compound 225], the values for the IC50 at Rat mEH and at human sEH were over 500 µM and 1.05 ± 0.03 µM, respectively.

`O=C(NCc1ccc(Cl)cc1)NC1CCCCC1` [Compound 193] showed an IC50 against Rat mEH of over 500 µM.

Regarding `O=C(NC1CCCCC1)SC1CCCCC1` [Compound 11], the figures for the IC50 on human sEH and at mouse sEH were 7.5 ± 0.4 µM and 3.8 ± 0.01 µM, respectively.

For `[H]/N=C(\N/C(=N/[H])NCCCCCCNC(=N)NC(=N)Nc1ccc(Cl)cc1)Nc1ccc(Cl)cc1` [Compound 204], the figures for the IC50 on human sEH and on mouse sEH (setting [2]) were 49 ± 7 µM and over 250 µM, respectively.

In the case of `CCCCCCCCCCNC(=O)NCC` [Compound 19], the IC50 on M secta mEH amounted to 4.8 ± 0.4 µM.

For the compound `O=C(NCCCc1ccccc1)NC1CCCCC1` [Compound 104], the IC50 at Rat mEH was over 500 µM.

`CCCCCCCCNC(=O)NC1CCCCC1` [Compound 168]: on Rat mEH, the IC50 was over 500 µM.

With `O=C(NCC1CCCCC1)Nc1ccc2ccccc2c1` [Compound 169], on Rat mEH, the half-maximal inhibitory concentration (IC50) was over 500 µM.

Regarding `CNC(=O)Nc1ccc(Cl)c(Cl)c1` [Compound 32], the values for the IC50 against Rat mEH, on human sEH and at mouse sEH (setting [2]) were over 500 µM, 47 ± 2 µM and 108 ± 4 µM, respectively.

Usually IC50 stands for the concentration that inhibits the measured activity by half.
